Publication PMC3870094 (Environmental science & technology, 2013)
Values joined by “and” are separate entries in the source; they are usually repeats but may differ in a detail not shown here. Equal entries are not always repeated.

Assays:
Rat CYP2B1 [1] = biological target: T1, Rat CYP2B1 (Rattus norvegicus, UniProt P00176); details: for Biotransformation activity of atropisomer compared with antipode: Fig. 1A1; for Average EF of 5-OH-PCB metabolite: formed from parent PCB by rat CYP2B1, 60 min, two enantioselective columns; for Formation of 4,5-DiOH-PCB from PCB: Fig. 1B1; for 4-OH-PCB metabolites detected by GC-ECD: not confirmed by GC-MS; for Depletion of PCB after 60 min incubation: rat CYP2B1, 1000 ng/mL PCB; for Depletion of OH-PCB after 60 min: rat CYP2B1, OH-PCB as substrate; for EF of OH-PCB substrate after biotransformation: rat CYP2B1, racemic OH-PCB as substrate
T1 sequence (P00176 1-491): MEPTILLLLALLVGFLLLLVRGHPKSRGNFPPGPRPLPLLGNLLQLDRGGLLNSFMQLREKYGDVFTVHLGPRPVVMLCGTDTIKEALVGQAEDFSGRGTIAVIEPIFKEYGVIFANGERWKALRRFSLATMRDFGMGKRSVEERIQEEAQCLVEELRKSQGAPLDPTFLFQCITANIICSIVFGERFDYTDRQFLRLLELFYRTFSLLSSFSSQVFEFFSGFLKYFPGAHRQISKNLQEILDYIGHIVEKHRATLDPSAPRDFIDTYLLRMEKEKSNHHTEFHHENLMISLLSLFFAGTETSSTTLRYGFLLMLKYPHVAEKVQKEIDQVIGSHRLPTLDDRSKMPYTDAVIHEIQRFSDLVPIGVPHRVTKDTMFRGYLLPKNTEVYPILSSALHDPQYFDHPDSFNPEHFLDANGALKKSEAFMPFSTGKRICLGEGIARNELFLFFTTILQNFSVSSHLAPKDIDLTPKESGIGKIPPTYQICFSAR

Rat CYP2B1 [2] = biological target: T1, Rat CYP2B1; assay type: in vitro ADME; details: for Formation of metabolite with increases in initial (+)-PCB 136 concentration: 500 ng (−)-PCB 136 as major substrate
rat liver microsomes = details: cited from earlier work
[3] = cited from earlier work; for EF of OH-PCB 95 in the liver: female C57Bl/6 mice
[4] = Sprague-Dawley rats, intraperitoneal injection of PCB 136; cited from earlier work
[5] = cited from earlier work

## Clc1ccc(Cl)c(-c2c(Cl)ccc(Cl)c2Cl)c1 [E2-95]
Rat CYP2B1 [1]; rat CYP2B1, 60 min
  Biotransformation activity of atropisomer compared with antipode: significantly higher than their respective antipodes

## Clc1ccc(Cl)c(-c2c(Cl)ccc(Cl)c2Cl)c1Cl [(−)-PCB 136]
Rat CYP2B1 [2]; pure (−)-PCB 136 incubations, Fig. 4A2
  5-136 atropisomer formed in pure atropisomer incubation: E1-5-136 was the only metabolite

## Oc1cc(Cl)c(Cl)c(-c2cc(Cl)c(Cl)cc2Cl)c1Cl [5-149, 2,2',4',5,5',6-hexachlorobiphenyl-3-ol]
Rat CYP2B1 [1]
  Average EF of 5-OH-PCB metabolite: 0.41
Rat liver microsomes
  EF of 5-OH-PCB from incubation of parent PCB with rat liver microsomes: 0.66

## Clc1ccc(-c2c(Cl)ccc(Cl)c2Cl)c(Cl)c1 [PCB 91, 2,2',3,4',6-pentachlorobiphenyl]
Rat CYP2B1 [1]; rat CYP2B1, 60 min
  Formation of 4,5-DiOH-PCB from PCB: minor metabolites
  4-OH-PCB metabolites detected by GC-ECD: minor products
Rat liver microsomes
  Yield of 5-OH-PCB metabolite in rat liver microsomal studies: 20%

## Clc1cc(Cl)c(-c2c(Cl)ccc(Cl)c2Cl)cc1Cl [PCB 149, 2,2',3,4',5',6-hexachlorobiphenyl]
Rat CYP2B1 [1]; 60 min
  Depletion of PCB after 60 min incubation: 4%
Rat CYP2B1 [1]; rat CYP2B1, 60 min
  Stereoselectivity of biotransformation: no apparent stereoselectivity
Rat liver microsomes; 30 min
  EF of PCB 149 after 30 min biotransformation by rat liver microsomes: 0.46
Rat liver microsomes
  Yield of 5-OH-PCB metabolite in rat liver microsomal studies: 2.6%

## Oc1cc(Cl)c(-c2cc(Cl)ccc2Cl)c(Cl)c1Cl [4-95, 2,2',3,5',6-pentachlorobiphenyl-4-ol]
[3]
  EF of OH-PCB 95 in the liver: about 0.20
Rat CYP2B1 [1]; 60 min
  Depletion of OH-PCB after 60 min: 40%
  EF of OH-PCB substrate after biotransformation: 0.62

## Oc1cc(Cl)c(Cl)c(-c2c(Cl)ccc(Cl)c2Cl)c1Cl [5-136, 2,2',3,3',6,6'-hexachlorobiphenyl-5-ol]
Rat CYP2B1 [1]
  Average EF of 5-OH-PCB metabolite: 0.77
Rat CYP2B1 [2]; 60 min
  Formation of metabolite with increases in initial (+)-PCB 136 concentration: not influenced
Rat liver microsomes
  EF of 5-OH-PCB from incubation of parent PCB with rat liver microsomes: 0.70
[4]
  EF of 5-136 in livers: ≈ 0.4

## Clc1ccc(Cl)c(-c2c(Cl)ccc(Cl)c2Cl)c1Cl [PCB 136, 2,2',3,3',6,6'-hexachlorobiphenyl]
[3]; C57Bl/6 female mice tissues, oral administration
  EF of PCB in mice tissues after oral administration: ~0.7
Rat CYP2B1 [1]; 60 min
  Depletion of PCB after 60 min incubation: 21%
Rat CYP2B1 [1]; rat CYP2B1, 60 min
  Formation of 4,5-DiOH-PCB from PCB: minor metabolites
  4-OH-PCB metabolites detected by GC-ECD: minor products
Rat liver microsomes; 30 min
  EF of PCB after 30 min microsomal incubation: 0.40
Rat liver microsomes
  Yield of 5-OH-PCB metabolite in rat liver microsomal studies: 22%

## Oc1cc(Cl)c(-c2c(Cl)ccc(Cl)c2Cl)c(Cl)c1Cl [4-136, 2,2',3,3',6,6'-hexachlorobiphenyl-4-ol]
Rat CYP2B1 [2]; 500 ng (+)-PCB 136 as major substrate, 60 min
  Formation of metabolite with increases in initial (−)-PCB 136 concentration: significant increase
Rat CYP2B1 [2]; 60 min
  Formation of metabolite with increases in initial (+)-PCB 136 concentration: significantly decreased

## Oc1cc(Cl)c(Cl)c(-c2ccc(Cl)cc2Cl)c1Cl [5-91, 2,2',3,4',6-pentachlorobiphenyl-5-ol]
Rat CYP2B1 [1]
  Average EF of 5-OH-PCB metabolite: 0.17
Rat liver microsomes
  EF of 5-OH-PCB from incubation of parent PCB with rat liver microsomes: 0.54

## Oc1cc(Cl)c(Cl)c(-c2cc(Cl)ccc2Cl)c1Cl [5-95, 2,2',3,5',6-pentachlorobiphenyl-5-ol]
[3]
  EF of OH-PCB 95 in the liver: ~0.65
Rat CYP2B1 [1]
  Average EF of 5-OH-PCB metabolite: 0.20 and ~ 0.20
Rat CYP2B1 [1]; rat CYP2B1, 60 min, Fig. 2A1
  Biotransformation activity of 5-95 compared with 4-95: significantly greater biotransformation activity
Rat CYP2B1 [1]; 60 min
  Depletion of OH-PCB after 60 min: 64%
  EF of OH-PCB substrate after biotransformation: 0.46
Rat liver microsomes
  EF of 5-OH-PCB from incubation of parent PCB with rat liver microsomes: 0.36

## Clc1ccc(-c2c(Cl)ccc(Cl)c2Cl)c(Cl)c1Cl [(−)-132]
Rat CYP2B1 [1]; rat CYP2B1, 60 min
  Biotransformation activity of atropisomer compared with antipode: significantly higher than their respective antipodes

## Oc1c(O)c(Cl)c(-c2c(Cl)ccc(Cl)c2Cl)c(Cl)c1Cl [4,5-136, 3,4-dihydroxy −2,2',3',5,6,6'-hexachlorobiphenyl]
Rat CYP2B1 [2]; 60 min
  Formation of metabolite with increases in initial (+)-PCB 136 concentration: significantly decreased

## Clc1ccc(-c2c(Cl)ccc(Cl)c2Cl)c(Cl)c1Cl [PCB 132, 2,2',3,3',4,6'-hexachlorobiphenyl]
Rat CYP2B1 [1]; 60 min
  Depletion of PCB after 60 min incubation: 11%
Rat liver microsomes
  Yield of 5-OH-PCB metabolite in rat liver microsomal studies: 16%

## Clc1ccc(Cl)c(-c2c(Cl)ccc(Cl)c2Cl)c1Cl [(+)-PCB 136]
Rat CYP2B1 [1]; rat CYP2B1, 60 min
  Biotransformation activity of atropisomer compared with antipode: significantly higher than their respective antipodes
Rat CYP2B1 [2]; 500 ng (+)-PCB 136, 0-500 ng/mL (−)-PCB 136, 60 min
  Biotransformation activity of (+)-PCB 136 in the presence of (−)-PCB 136: not significantly affected

## Clc1ccc(Cl)c(-c2c(Cl)ccc(Cl)c2Cl)c1 [PCB 95, 2,2',3,5',6-pentachlorobiphenyl]
Rat CYP2B1 [1]; rat CYP2B1, 60 min
  4-OH-PCB metabolites detected by GC-ECD: minor products
Rat liver microsomes
  Yield of 5-OH-PCB metabolite in rat liver microsomal studies: 8.8%
[5]
  EF of PCB in vivo in rats: > 0.5

## Clc1ccc(-c2c(Cl)ccc(Cl)c2Cl)c(Cl)c1 [E1-91]
Rat CYP2B1 [1]; rat CYP2B1, 60 min
  Biotransformation activity of atropisomer compared with antipode: significantly higher than their respective antipodes

## Oc1cc(Cl)c(Cl)c(-c2ccc(Cl)c(Cl)c2Cl)c1Cl [5’-132, 2,2',3,3',4',6-hexachlorobiphenyl-5-ol]
Rat CYP2B1 [1]
  Average EF of 5-OH-PCB metabolite: 0.85
Rat liver microsomes
  EF of 5-OH-PCB from incubation of parent PCB with rat liver microsomes: 0.30

## Oc1c(O)c(Cl)c(-c2cc(Cl)ccc2Cl)c(Cl)c1Cl [4,5-95, 3,4-dihydroxy −2,2',5,5',6-pentachlorobiphenyl]
Rat CYP2B1 [1]; rat CYP2B1, 4-95 incubation, 60 min
  EF of 4,5-95 formed: 0.53
